The text below walks through data of ChEMBL document CHEMBL1201862, “PubChem BioAssay data set” (2004).

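Where inhibition never reached the appropriate level, the endpoint shown equals the highest concentration tested. Otherwise, values were interpolated linearly from a five-concentration, 48-hour dose response in 96-well plates. At the GI50, growth is halved.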 Activity calls are given as the source filed them. Rule as the data show it: active = GI50 up to about 1.1 µM and inactive = higher.

What all share (assay): NCI-60 cell line screen, 48 h
Experiment [1] deals with A549.
Experiment [2] deals with BT-549.
The subject of experiment [3] is COLO 205.
Experiment [4] concerns DU-145.
Experiment [5] relates to HOP-62.
Experiment [6] concerns MDA-MB-435.
For experiment [7], the system named is Malme-3M.
The test system of experiment [8] is NCI-H226.
Experiment [9] concerns NCI-H23.
Experiment [10] relates to NCI/ADR-RES.
In experiment [11] the test system is OVCAR-8.
The subject of experiment [12] is RPMI-8226.
The subject of experiment [13] is SK-MEL-2.
For experiment [14], the system named is SK-MEL-5.
The test system of experiment [15] is SN12C.
Experiment [16] concerns SW-620.
Experiment [17] concerns UACC-257.
The subject of experiment [18] is UACC-62.
For experiment [19], the system named is UO-31.

As to `C[C@@H](C[C@H]1OC(C)(C)O[C@@H]1C(C)(C)O)[C@H]1CC=C2[C@]3(C)[C@H](O)C[C@H]4C(C)(C)[C@H](O)CC[C@]4(C)[C@H]3CC[C@]21C`, the GI50 is 5.86 µM (inactive) in experiment [1]; 11.4 µM (inactive) in experiment [2]; 5.26 µM (inactive) in [3]; 14.1 µM (inactive) in experiment [4]; 12.8 µM (inactive) in experiment [5]; 8.28 µM (inactive) in [6]. Moreover, the GI50 was 14 µM (inactive) in [7]; 7.62 µM (inactive) in experiment [8]; 9.86 µM (inactive) in experiment [9]; 7.69 µM (inactive) in experiment [10]; 11.6 µM (inactive) in experiment [11]; 4.03 µM (inactive) in experiment [12]. Moreover, the GI50 in experiment [13] is 11.5 µM (inactive); in experiment [14], 7.36 µM (inactive); in experiment [15] it was 3.32 µM (inactive); in experiment [16] it was 10.7 µM (inactive); in experiment [17], 8.81 µM (inactive); in experiment [18], 11.5 µM (inactive). Also, the GI50 in experiment [19] was 8.93 µM (inactive).

For the compound `C=C[C@H]1CN2CCc3c([nH]c4c([C@@H]5CCCN5C)c(O)ccc34)[C@@H]2C[C@@H]1C[C@H]1c2[nH]c3ccccc3c2CCN1C`, the GI50 is 1.5 µM (inactive) in [1]; 1.47 µM (inactive) in experiment [2]; 1.61 µM (inactive) in [3]; 1.69 µM (inactive) in [4]; 1.35 µM (inactive) in experiment [5]; 1.51 µM (inactive) in experiment [6]. In addition, the GI50 is 1.85 µM (inactive) in experiment [7]; 2.05 µM (inactive) in [8]; 1.82 µM (inactive) in experiment [9]; 1.85 µM (inactive) in experiment [10]; 1.4 µM (inactive) in [11]; 0.478 µM (active) in [12]. The GI50 in [13] was 1.85 µM (inactive); in [14], 1.57 µM (inactive); in experiment [15] it was 1.82 µM (inactive); in experiment [16] it was 1.13 µM (inactive); in experiment [17], 1.91 µM (inactive); in experiment [18] it was 1.83 µM (inactive). In [19], the GI50 was 1.63 µM (inactive).

In the case of `O=C1NC(=S)NC(=O)C1C(c1ccccc1[N+](=O)[O-])C1C(=O)NC(=S)NC1=O.c1ccncc1`, the GI50 in [1], in experiment [2], in experiment [3], in experiment [4], in experiment [5] and in [6] was > 100 µM (inactive) each time. The GI50 in experiment [7], in experiment [8], in experiment [9], in [10], in experiment [11] and in [12] was > 100 µM (inactive) in each case. Further, the GI50 in experiment [13], in experiment [14], in [15], in [16], in experiment [17] and in experiment [18] was > 100 µM (inactive) in each case. Moreover, in experiment [19], the GI50 was > 100 µM (inactive).

Consider `O=[N+]([O-])c1cccnc1NCC1(CO)CC(Cc2ccccc2)C1` (stereo not drawn), for which the GI50 in experiment [1], in experiment [2], in [3], in experiment [4], in experiment [5] and in experiment [6] was > 100 µM (inactive) each time. The GI50 in experiment [7] is > 100 µM (inactive); in experiment [8], 80.4 µM (inactive); in experiment [9] it was > 100 µM (inactive); in experiment [10], > 100 µM (inactive); in experiment [11], > 100 µM (inactive); in [12], 99.8 µM (inactive). Moreover, the GI50 in [13], in experiment [14], in experiment [15], in experiment [16], in experiment [17] and in experiment [18] was > 100 µM (inactive) throughout. Besides, the GI50 in [19] was 74 µM (inactive).

For `N#CCCCC[N+]12CN3CN(CN(C3)C1)C2`, the GI50 in experiment [1], in experiment [2], in experiment [3], in [4], in [5] and in experiment [6] was > 100 µM (inactive) throughout. Also, the GI50 is > 100 µM (inactive) in experiment [7]; > 100 µM (inactive) in experiment [8]; > 100 µM (inactive) in [9]; > 100 µM (inactive) in experiment [10]; > 100 µM (inactive) in experiment [11]; 40.8 µM (inactive) in experiment [12]. Besides, the GI50 in experiment [13] is > 100 µM (inactive); in experiment [14], > 100 µM (inactive); in experiment [15], > 100 µM (inactive); in [16], 64.6 µM (inactive); in experiment [17], > 100 µM (inactive); in [18] it was > 100 µM (inactive). For the same compound, the GI50 in experiment [19] was > 100 µM (inactive).

With `O=C1N=NC(=O)N1c1cc(C(F)(F)F)cc(C(F)(F)F)c1`, the GI50 in experiment [1] is 2.93 µM (inactive); in experiment [2], 3.61 µM (inactive); in [3], 1.85 µM (inactive); in experiment [4], 5.28 µM (inactive); in experiment [5] it was 4.17 µM (inactive); in [6], 4.38 µM (inactive). For the same compound, the GI50 is 3.83 µM (inactive) in [7]; 2.55 µM (inactive) in experiment [8]; 2.35 µM (inactive) in [9]; 2.97 µM (inactive) in experiment [10]; 3.38 µM (inactive) in [11]; 2.89 µM (inactive) in [12]. For the same compound, the GI50 in experiment [13] is 2.2 µM (inactive); in experiment [14] it was 2.61 µM (inactive); in [15] it was 3.75 µM (inactive); in [16], 5.46 µM (inactive); in [17] it was 3.16 µM (inactive); in [18], 5.65 µM (inactive). The GI50 in experiment [19] is 2.44 µM (inactive).

Regarding `COC(=O)C1(Cc2ccc3c(c2)CCC3)Cc2cc3c(cc2C1=O)CCC3` (stereo not drawn), the GI50 is 18.2 µM (inactive) in experiment [1]; 7.96 µM (inactive) in experiment [2]; 15.4 µM (inactive) in [3]; 44.4 µM (inactive) in experiment [4]; > 46.5 µM (inactive) in experiment [5]; 13.3 µM (inactive) in [6]. Moreover, the GI50 was 41.5 µM (inactive) in experiment [7]; 39.2 µM (inactive) in [8]; 22 µM (inactive) in [9]; 13.4 µM (inactive) in experiment [10]; 27.2 µM (inactive) in experiment [11]; 8.02 µM (inactive) in [12]. The GI50 was 17.1 µM (inactive) in [13]; 14.3 µM (inactive) in [14]; 26.9 µM (inactive) in experiment [15]; 16.9 µM (inactive) in [16]; 16.4 µM (inactive) in [17]; 37 µM (inactive) in [18]. The GI50 in [19] was 16 µM (inactive).
